Experimental data from US20110288082A1, “METHODS AND COMPOSITIONS FOR INHIBITION OF THE TRANSITIONAL ENDOPLASMIC RETICULUM ATPASE” (priority 2010, published 2011).
Like-named read-outs stand apart in the source and are kept apart here.

Experiments:
p97 = p97 (Homo sapiens, UniProt P55072); test: p97 ATPase assay (Kinase Glo Plus; biomol green for compounds that interfere with luciferase); format: biochemical
Experimental: Assay Buffer (20 μL of 2.5× concentration, where 1×=50 mM Tris pH 7.4, 20 mM MgCl2, 1 mM EDTA, 0.5 mM TCEP) was dispensed into each well of a 96 well plate. Purified p97 (25 μL of 50 μM) was diluted in 975 μL, of 1× Assay Buffer and 10 μL was dispensed in each well. Test compound (10 μL) or 5% DMSO (10 μL) was then added to each well and the plate was incubated at room temperature for 10 min. The ATPase assay was carried out by adding to each well 10 μL of 500 μM ATP (pH 7.5), incubating at room temperature for 60 min, and then adding 50 μL Kinase Glo Plus reagent (Promega) followed by a final 10 min incubation at room temperature in the dark. Luminescence was read on an Analyst AD (Molecular Devices). Compounds were assayed at a range of concentrations (0, 0.048, 0.24, 1.2, 6, 30 μM) in triplicate. The percent of remaining activity for each reaction was calculated using the following mathematical expression: ((Test Compound-High Control)/(Low Control-High Control))*100. Test_Compound is defined as wells containing test compound, Low_Control is defined as wells containing DMSO, High_Control is defined as wells containing no p97 protein. […] The result was expressed as mean +/− standard error. For assays with Myriad 12 and 19, 100 μL of biomol green reagent (Enzo Life Sciences) was added to each well instead of kinase Glo Plus (Promega) and absorbance at 630 nm was measured. This was done because these compounds interfered with luciferase activity. […]

[1] = tested on: p97-dependent Ub^G76V-GFP degradation in HeLa cells; test: Ub^G76V-GFP degradation (turn-over) assay; format: cell-based, human; conditions: Homo sapiens, HeLa
Experimental: Ub^G76V-GFP Degradation Assay
Two GFP images with 100 ms exposure time per well were acquired and the average GFP intensity per area of a HeLa cell was determined by using MetaXpress software. Mean GFP intensity of 300-500 cells was calculated using Excel. Normalized GFP intensity was calculated using the following formula: (Test compound−Background)/(Basal GFP intensity—Background). Where: Test compound is defined as Mean GFP intensity of Ub^G76V-GFP-expressing cells treated with the test compound. Background is defined as background GFP intensity of HeLa cells. Basal GFP intensity is defined as mean GFP intensity of Ub^G76V-GFP-expressing cells treated with DMSO. […] The percent of remaining k for each compound is calculated using the following formula: (Test compound/DMSO control)*100. Where: Test_compound is defined as k determined from wells containing test compound, DMSO control is defined as k determined from wells containing DMSO.

[2] = purified p97, ATP, 60 min room temperature, mean +/- standard error
[3] = read-out: IC50 (μM) Ub^G76V-GFP turn over, Ub^G76V-GFP-expressing HeLa cells, degradation rate constant k from 90 to 180 min, mean +/- standard error
[4] = read-out: IC50 (μM) Ub^G76V-GFP turn over, p97-dependent Ub^G76V-GFP degradation turn-over assay

p97, sequence (P55072 2-806 limits assumed): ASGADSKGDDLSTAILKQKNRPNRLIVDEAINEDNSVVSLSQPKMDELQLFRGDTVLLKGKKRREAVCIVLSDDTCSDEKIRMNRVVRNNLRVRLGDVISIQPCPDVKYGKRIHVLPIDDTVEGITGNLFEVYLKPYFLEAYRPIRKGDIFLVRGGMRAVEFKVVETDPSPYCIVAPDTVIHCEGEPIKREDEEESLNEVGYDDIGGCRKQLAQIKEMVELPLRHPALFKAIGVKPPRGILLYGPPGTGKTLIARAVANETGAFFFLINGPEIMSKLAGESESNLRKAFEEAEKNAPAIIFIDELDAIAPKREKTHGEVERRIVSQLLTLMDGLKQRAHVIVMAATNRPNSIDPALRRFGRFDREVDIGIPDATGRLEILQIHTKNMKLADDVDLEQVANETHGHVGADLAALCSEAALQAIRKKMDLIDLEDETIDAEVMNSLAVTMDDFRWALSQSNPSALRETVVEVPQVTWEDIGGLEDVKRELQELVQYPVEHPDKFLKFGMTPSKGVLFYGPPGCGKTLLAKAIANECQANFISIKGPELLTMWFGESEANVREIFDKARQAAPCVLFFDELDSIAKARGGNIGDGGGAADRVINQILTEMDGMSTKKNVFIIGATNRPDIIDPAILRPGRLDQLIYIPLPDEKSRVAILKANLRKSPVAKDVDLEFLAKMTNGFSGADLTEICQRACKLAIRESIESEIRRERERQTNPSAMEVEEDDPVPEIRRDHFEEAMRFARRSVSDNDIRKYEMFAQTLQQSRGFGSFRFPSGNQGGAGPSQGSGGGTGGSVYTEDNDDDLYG

Work on Fc1ccc2c(NCc3ccccc3)nc(NCc3ccccc3)nc2c1 [VI-11] yielded an IC50 (p97; [2]) of 2.6 ± 0.5 µM and an IC50 [1, 3] of 6.1 ± 0.8 µM.
With Clc1ccc2c(NCc3ccccc3)nc(NCc3ccccc3)nc2c1 [VI-12] the IC50 (p97; [2]) was 5.5 ± 0.9 µM and the IC50 [1, 3] was 6.3 ± 0.9 µM.
In the case of COc1ccc2c(NCc3ccccc3)nc(NCc3ccccc3)nc2c1 [VI-13], the IC50 (p97; [2]) is reported as 5.7 ± 1 µM and the IC50 [1, 3] is reported as 42 ± 6 µM.
COc1ccc2nc(NCc3ccccc3)nc(NCc3ccccc3)c2c1 [VI-14] showed an IC50 (p97; [2]) of 7.5 ± 1.1 µM and an IC50 [1, 3] of 8.6 ± 1.7 µM.
Fc1ccc2nc(NCc3ccccc3)nc(NCc3ccccc3)c2c1 [VI-15] was tested, and the IC50 (p97; [2]) was 4.7 ± 0.4 µM and the IC50 [1, 3] was 8.2 ± 1.5 µM.
In the case of Brc1ccc2c(NCc3ccccc3)nc(NCc3ccccc3)nc2c1 [VI-16], the IC50 (p97; p97 ATPase assay) is reported as 22 ± 4 µM and the IC50 [1, 4] is reported as 10 ± 2 µM.
For c1ccc(CNc2nc(N3CCCc4ccccc43)nc3ccccc23)cc1 [VII-1], the IC50 (p97; [2]) was 4.4 ± 1.8 µM and the IC50 [1, 3] was 10 ± 2 µM.
c1ccc(CNc2nc(N3CCc4ccccc43)nc3ccccc23)cc1 [VII-2] showed an IC50 (p97; [2]) of 2 ± 0.5 µM and an IC50 [1, 3] of 11 ± 3 µM.
Compound c1ccc(CNc2nc(N3CCOc4ccccc43)nc3ccccc23)cc1 [VII-3] has an IC50 (p97; [2]) of 0.6 ± 0.2 µM and an IC50 [1, 3] of 7 ± 1.9 µM.
c1ccc(CNc2nc(N3CCNc4ccccc43)nc3ccccc23)cc1 [VII-4] showed an IC50 (p97; [2]) of 0.4 ± 0.05 µM and an IC50 [1, 3] of 6.3 ± 1 µM.
Compound COc1cccc2c(NCc3ccccc3)nc(N3CCNc4ccccc43)nc12 [VII-5] has an IC50 (p97; [2]) of 0.9 ± 0.1 µM and an IC50 [1, 3] of 3.7 ± 0.2 µM.
COc1cccc2c(NCc3ccccc3)nc(N3CCOc4ccccc43)nc12 [VII-6] was tested, and the IC50 (p97; [2]) was 0.2 ± 0.02 µM and the IC50 [1, 3] was 3.3 ± 0.4 µM.
With Oc1cccc2c(NCc3ccccc3)nc(N3CCOc4ccccc43)nc12 [VII-7] the IC50 (p97; [2]) was 1.2 ± 0.3 µM and the IC50 [1, 3] was 7.7 ± 1.7 µM.
With c1ccc(CNc2nc(N3CCOc4ccccc43)nc3c(-c4ccccc4)cccc23)cc1 [VII-8] the IC50 (p97; [2]) was 3.5 ± 0.6 µM and the IC50 [1, 3] was 5 ± 0.9 µM.
OCCOc1cccc2c(NCc3ccccc3)nc(N3CCOc4ccccc43)nc12 [VII-9] gave an IC50 (p97; [2]) of 0.17 ± 0.05 µM and an IC50 [1, 3] of 3.8 ± 0.8 µM.
Work on CCN(CC)CCOc1cccc2c(NCc3ccccc3)nc(N3CCOc4ccccc43)nc12 [VII-10] yielded an IC50 (p97; [2]) of 0.4 ± 0.08 µM and an IC50 [1, 3] of 5.3 ± 0.6 µM.
Compound COc1ccc(-c2cccc3c(NCc4ccccc4)nc(N4CCOc5ccccc54)nc23)cc1 [VII-11] has an IC50 (p97; [2]) of 1.1 ± 0.1 µM and an IC50 [1, 3] of 9 ± 1 µM.
With COc1cccc2c(NCc3ccccc3)nc(N3CCN(C)c4ccccc43)nc12 [VII-12] the IC50 (p97; [2]) was 3.1 ± 0.5 µM and the IC50 [1, 3] was 7.8 ± 0.7 µM.
COc1cccc2c(NCc3ccccc3)nc(N3CCN(C(C)=O)c4ccccc43)nc12 [VII-13] was tested, and the IC50 (p97; [2]) was 2.7 ± 0.6 µM and the IC50 [1, 3] was 8 ± 1 µM.
With COCCOc1cccc2c(NCc3ccccc3)nc(N3CCOc4ccccc43)nc12 [VII-14] the IC50 (p97; [2]) was 0.6 ± 0.03 µM and the IC50 [1, 3] was 6.5 ± 0.7 µM.
Work on CCCCc1cccc2c(NCc3ccccc3)nc(N3CCOc4ccccc43)nc12 [VII-15] yielded an IC50 (p97; p97 ATPase assay) of 2.63 ± 0.7 µM and an IC50 [1, 4] of 28 ± 3 µM.
Compound COc1cccc2c(NCc3ccccc3)nc(-n3c(N)nc4ccccc43)nc12 [VII-16] has an IC50 (p97; [2]) of 0.11 ± 0.03 µM and an IC50 [1, 3] of 0.9 ± 0.1 µM.
With COc1cccc2c(NCc3ccccc3)nc(-n3c(=O)oc4ccccc43)nc12 [VII-17] the IC50 (p97; [2]) was 0.11 ± 0.03 µM and the IC50 [1, 3] was 5 ± 1 µM.
c1ccc(CNc2nc(N3CCOc4ccccc43)nc3c2CCCC3)cc1 [VIII] showed an IC50 (p97; [2]) of 0.11 ± 0.03 µM and an IC50 [1, 3] of 3.5 ± 0.4 µM.
For COc1cccc2c(NCc3ccccc3)nc(-n3cnc4ccccc43)nc12 [XI-1], the IC50 (p97; [2]) was 3.3 ± 1.1 µM and the IC50 [1, 3] was 78 ± 45 µM.
Work on COc1cccc2c(NCc3ccccc3)nc(N3CCOCC3)nc12 [XI-2] yielded an IC50 (p97; p97 ATPase assay) of 31 ± 7 µM and an IC50 [1, 4] of 47 ± 9 µM.
With COc1cccc2c(NCc3ccccc3)nc(NC(N)=O)nc12 [XI-3] the IC50 (p97; p97 ATPase assay) was 49 ± 10 µM and the IC50 [1, 4] was 108 ± 31 µM.
With COc1cccc2c(NCc3ccccc3)nc(N3CCN(C)CC3)nc12 [XI-4] the IC50 (p97; p97 ATPase assay) was over 30 µM and the IC50 [1, 4] was 45 ± 18 µM.
COc1cccc2c(NCc3ccccc3)nc(Nc3nc4ccccc4s3)nc12 [XI-5] showed an IC50 (p97; [2]) of 0.5 ± 0.2 µM and an IC50 [1, 3] of 14 ± 2 µM.
